This note sets out measurements from patent US20120129858A1, “COMPOUNDS, COMPOSITIONS AND METHODS COMPRISING PYRIDAZINE SULFONAMIDE DERIVATIVES” (INSTITUTE FOR ONEWORLD HEALTH, priority 2009, published 2012).

T1 sequence (P13569 whole entry): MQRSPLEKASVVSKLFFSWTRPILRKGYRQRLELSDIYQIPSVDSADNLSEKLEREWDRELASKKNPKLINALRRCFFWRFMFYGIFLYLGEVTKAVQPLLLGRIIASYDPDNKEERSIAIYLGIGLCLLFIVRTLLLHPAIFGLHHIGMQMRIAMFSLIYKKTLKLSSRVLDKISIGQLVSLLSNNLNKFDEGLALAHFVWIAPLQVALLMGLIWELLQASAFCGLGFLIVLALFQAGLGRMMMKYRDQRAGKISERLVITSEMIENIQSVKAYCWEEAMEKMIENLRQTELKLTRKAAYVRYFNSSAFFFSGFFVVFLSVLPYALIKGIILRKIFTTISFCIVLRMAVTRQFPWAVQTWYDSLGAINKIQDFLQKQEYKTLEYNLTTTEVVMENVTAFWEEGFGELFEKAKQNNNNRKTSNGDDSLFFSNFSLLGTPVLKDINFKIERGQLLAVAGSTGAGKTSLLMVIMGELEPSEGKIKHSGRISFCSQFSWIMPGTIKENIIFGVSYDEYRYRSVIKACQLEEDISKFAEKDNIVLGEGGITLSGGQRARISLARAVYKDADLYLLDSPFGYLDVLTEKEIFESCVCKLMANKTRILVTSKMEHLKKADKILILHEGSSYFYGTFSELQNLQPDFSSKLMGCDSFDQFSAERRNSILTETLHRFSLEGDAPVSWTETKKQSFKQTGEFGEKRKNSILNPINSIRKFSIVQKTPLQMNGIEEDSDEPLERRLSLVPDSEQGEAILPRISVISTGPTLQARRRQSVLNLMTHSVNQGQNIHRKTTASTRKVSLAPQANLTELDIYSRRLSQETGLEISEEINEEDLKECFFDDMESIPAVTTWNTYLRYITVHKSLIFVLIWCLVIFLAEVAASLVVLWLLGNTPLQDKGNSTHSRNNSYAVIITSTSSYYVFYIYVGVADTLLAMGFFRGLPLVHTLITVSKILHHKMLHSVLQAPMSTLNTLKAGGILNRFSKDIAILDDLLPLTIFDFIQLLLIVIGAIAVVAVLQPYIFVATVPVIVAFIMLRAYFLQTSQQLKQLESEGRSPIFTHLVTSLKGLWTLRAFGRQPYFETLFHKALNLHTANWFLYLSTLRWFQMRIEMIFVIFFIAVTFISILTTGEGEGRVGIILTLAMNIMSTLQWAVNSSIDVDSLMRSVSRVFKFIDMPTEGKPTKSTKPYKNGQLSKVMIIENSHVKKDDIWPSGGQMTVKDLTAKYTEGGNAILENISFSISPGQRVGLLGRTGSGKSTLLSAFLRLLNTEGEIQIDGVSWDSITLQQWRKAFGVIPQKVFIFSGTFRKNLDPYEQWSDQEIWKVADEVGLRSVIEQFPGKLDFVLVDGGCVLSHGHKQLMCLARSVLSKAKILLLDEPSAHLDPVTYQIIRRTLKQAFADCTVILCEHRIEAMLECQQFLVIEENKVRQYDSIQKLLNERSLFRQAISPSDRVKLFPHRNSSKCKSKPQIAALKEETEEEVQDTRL

The test system of the first assay is cholera toxin (CTX) induced net fluid secretion in small intestine loops.
Assay: not given
The arrangement: species or system mice (CD1 strain). The conditions noted are these: mouse, in vivo.
On to `O=S(=O)(Nc1cccc(-c2ccc(OCCc3ccc(Cl)cc3)nn2)c1)C(F)(F)F` [Compound 2, N-(3-(6-(4-chlorophenethoxy)pyridazin-3-yl)phenyl)-1,1,1-trifluoromethanesulfonamide], for which the “closed loop % inhibition” value came out at 98.2%.

The next assay concerns the target T1, CFTR (Homo sapiens, UniProt P13569).
T1 construct: host or cells: T84 human colonic cells
Description: T84 assay (FLIPR membrane potential dye, forskolin/IBMX-stimulated CFTR channel activity). The assay is classed as cell-based. Conditions: average of at least 2 runs unless annotated n = 1. Here is the method:
Human colonic T84 cells are acquired from the European Collection of Cell Cultures (ECACC) and are grown in standard culture conditions as described by the supplier. On the day before assay 25,000 T84 cells per well are plated into standard black walled, clear bottom 384-well assay plates in standard growth medium consisting of DMEM:F12 with 10% FBS and incubated overnight. On the day of the assay the plates are washed using a standard assay buffer (HBSS with 10 mM Hepes) and incubated for 15 minutes in serum free cell culture medium before the addition of a commercially available membrane potential sensitive fluorescent dye (FLIPR Red membrane potential dye, Molecular Devices Corporation). T84 cells are incubated with the FLIPR Red membrane potential dye for 45 minutes in the presence and absence of test compound before being transferred to a commercially available fluorescence imaging plate reader (FLIPR384, Molecular Devices Corporation). Fluorescence levels are monitored continuously every second for 150 seconds; after an initial 10 second baseline, CFTR channel activity is stimulated through the addition of 10 μM forskolin in the presence of 100 μM of the phosphodiesterase inhibitor iso-butyl-methylxanthine (IBMX). Addition of the forskolin leads to the activation of intracellular adenylyl cylase 1, elevating cAMP levels and results in the phosphorylation and opening of CFTR anion channels. CFTR channel opening causes chloride ion efflux and subsequent depolarization of the cells, which is measured by an increase in fluorescence. CFTR inhibitor compounds prevent cell depolarization and the associated increase in fluorescence.
Unless otherwise indicated, the IC50 values are reported as an average of at least 2 runs. Where only 1 run is used, it is indicated by the annotation “n=1.”
Take `O=S(=O)(Nc1cccc(-c2ccc(OCCc3ccc(Cl)cc3)nn2)c1)c1ccc(N2CCOCC2)nc1` [Compound 4, N-(3-(6-(4-chlorophenethoxy)pyridazin-3-yl)phenyl)-6-morpholinopyridine-3-sulfonamide]: the midpoint of inhibition, the IC50, lay at 5.55 µM.
In the case of `CCN(Cc1ccccc1)c1ccc(-c2cccc(NS(=O)(=O)c3ccc(C)cc3)c2)nn1` [Compound 8, N-(3-(6-(benzyl(ethyl)amino)pyridazin-3-yl)phenyl)-4-methylbenzenesulfonamide], the half-inhibitory concentration (IC50) was 0.05 µM.
On the same count and under the same terms, with `CC(C)(C)c1ccc(S(=O)(=O)Nc2cccc(-c3ccc(OCCc4ccc(Cl)cc4)nn3)c2)cc1` [Compound 18, 4-tert-butyl-N-(3-(6-(4-chlorophenethoxy)pyridazin-3-yl)phenyl)benzenesulfonamide] the figure was 8.09 µM; with `CCN(Cc1ccccc1)c1ccc(-c2cccc(NS(C)(=O)=O)c2)nn1` [Compound 7, N-(3-(6-(benzyl(ethyl)amino)pyridazin-3-yl)phenyl)methanesulfonamide], 2.23 µM.
Still for that read-out and setting: in the case of `CCN(Cc1ccccc1)c1ccc(-c2cccc(NS(=O)(=O)N(C)C)c2)nn1` [Compound 6, N-(3-(6-(benzyl(ethyl)amino)pyridazin-3-yl)phenyl)dimethylaminosulfonamide] it was 1.4 µM.
Take `O=S(=O)(Nc1ccc(-c2ccc(OCCc3ccc(Cl)cc3)nn2)cc1)C(F)(F)F` [Compound 22, N-(4-(6-(4-chlorophenethoxy)pyridazin-3-yl)phenyl)-1,1,1-trifluoromethanesulfonamide]: the IC50 turned out to be 2.84 µM.
The same measure, in the same setting: with `O=C(NS(=O)(=O)Cc1ccccc1)c1cccc(-c2ccc(OCCc3ccc(Cl)cc3)nn2)c1` [Compound 17, N-(benzylsulfonyl)-3-(6-(4-chlorophenethoxy)pyridazin-3-yl)benzamide] the figure was 6.05 µM.
`CCN(Cc1ccccc1)c1ccc(-c2cccc(NS(=O)(=O)c3cccc(Br)c3)c2)nn1` [Compound 9, N-(3-(6-(benzyl(ethyl)amino)pyridazin-3-yl)phenyl)-3-bromobenzenesulfonamide]: the concentration for half-maximal inhibition (IC50) came to 0.05 µM. This IC50 lies about 120-fold lower than the previous one.
On the same count and under the same terms, in the case of `Cc1ccc(S(=O)(=O)NC(=O)c2ccc(-c3ccc(OCCc4ccc(Cl)cc4)nn3)cc2)cc1` [Compound 23, 4-(6-(4-chlorophenethoxy)pyridazin-3-yl)-N-tosylbenzamide] it was 3.03 µM; in that of `O=S(=O)(CC(F)(F)F)Nc1cccc(-c2ccc(OCCc3ccc(Cl)cc3)nn2)c1` [Compound 20, N-(3-(6-(4-chlorophenethoxy)pyridazin-3-yl)phenyl)-2,2,2-trifluoroethanesulfonamide], 14.8 µM; in that of `CC(C)(C)c1ccc(S(=O)(=O)NC(=O)c2cccc(-c3ccc(OCCc4ccc(Cl)cc4)nn3)c2)cc1` [Compound 14, N-(4-tert-butylphenylsulfonyl)-3-(6-(4-chlorophenethoxy)pyridazin-3-yl)benzamide], 20.1 µM.
Consider `O=C(NS(=O)(=O)c1ccc(F)c(F)c1)c1cccc(-c2ccc(OCCc3ccc(Cl)cc3)nn2)c1` [Compound 19, 3-(6-(4-chlorophenethoxy)pyridazin-3-yl)-N-(3,4-difluorophenylsulfonyl)benzamide], for which the IC50 is 13.9 µM.
On to `CCN(Cc1ccccc1)c1ccc(-c2cccc(NS(=O)(=O)C(F)(F)F)c2)nn1` [Compound 10, N-(3-(6-(benzyl(ethyl)amino)pyridazin-3-yl)phenyl)-1,1,1-trifluoromethanesulfonamide], for which the IC50 is 7.92 µM.
Compound `CCS(=O)(=O)NC(=O)c1cccc(-c2ccc(OCCc3ccc(Cl)cc3)nn2)c1` [Compound 13, 3-(6-(4-chlorophenethoxy)pyridazin-3-yl)-N-(ethylsulfonyl)benzamide] showed an IC50 of 18.7 µM.
Same read-out and setting: in the case of `Cc1ccc(S(=O)(=O)Nc2cccc(-c3ccc(NCc4ccccc4)nn3)c2)cc1` [Compound 16, N-(3-(6-(benzylamino)pyridazin-3-yl)phenyl)-4-methylbenzenesulfonamide] it was 2.24 µM.
On to `CS(=O)(=O)Nc1cccc(-c2ccc(OCCc3ccc(Cl)cc3)nn2)c1` [Compound 1, N-(3-(6-(4-chlorophenethoxy)pyridazin-3-yl)phenyl)methanesulfonamide], for which inhibition was half-maximal at 9.79 µM (IC50). This IC50 is about 4.4-fold higher than that of the compound before.
On the same count and under the same terms, in the case of `CC(C)CS(=O)(=O)Nc1ccc(-c2ccc(OCCc3ccc(Cl)cc3)nn2)cc1` [Compound 24, N-(4-(6-(4-chlorophenethoxy)pyridazin-3-yl)phenyl)-2-methylpropane-1-sulfonamide] it was 15.4 µM; in that of `CC(=O)Nc1ccc(S(=O)(=O)Nc2cccc(-c3ccc(OCCc4ccc(Cl)cc4)nn3)c2)cc1` [Compound 5, N-(4-(N-(3-(6-(4-chlorophenethoxy)pyridazin-3-yl)phenyl)sulfamoyl)phenyl)acetamide], 27.7 µM.
Still for that read-out and setting: in the case of `CCN(Cc1ccccc1)c1ccc(-c2cccc(N3CCCS3(=O)=O)c2)nn1` [Compound 26, Benzyl-{6-[3-(1,1-dioxo-isothiazolidin-2-yl)-phenyl]-pyridazin-3-yl}-ethylamine] it was 3.77 µM; in that of `COc1ccc(S(=O)(=O)NC(=O)c2cccc(-c3ccc(OCCc4ccc(Cl)cc4)nn3)c2)cc1` [Compound 11, 3-(6-(4-chlorophenethoxy)pyridazin-3-yl)-N-(4-methoxyphenylsulfonyl)benzamide], 11.4 µM; in that of `O=C(NS(=O)(=O)c1ccc(F)cc1)c1cccc(-c2ccc(OCCc3ccc(Cl)cc3)nn2)c1` [Compound 12, 3-(6-(4-chlorophenethoxy)pyridazin-3-yl)-N-(4-fluorophenylsulfonyl)benzamide], 11.7 µM.
The compound `O=S(=O)(Nc1cccc(-c2ccc(OCCc3ccc(Cl)cc3)nn2)c1)C(F)(F)F` [Compound 2, N-(3-(6-(4-chlorophenethoxy)pyridazin-3-yl)phenyl)-1,1,1-trifluoromethanesulfonamide] registered an IC50 of 5.79 µM.
The same measure, in the same setting: with `O=C(NS(=O)(=O)c1ccc(F)cc1F)c1cccc(-c2ccc(OCCc3ccc(Cl)cc3)nn2)c1` [Compound 21, 3-(6-(4-chlorophenethoxy)pyridazin-3-yl)-N-(2,4-difluorophenylsulfonyl)benzamide] the figure was 18.7 µM; with `N#Cc1ccc(S(=O)(=O)Nc2cccc(-c3ccc(OCCc4ccc(Cl)cc4)nn3)c2)cc1` [Compound 3, N-(3-(6-(4-chlorophenethoxy)pyridazin-3-yl)phenyl)-4-cyanobenzenesulfonamide], 17.2 µM; with `O=C(NS(=O)(=O)c1ccc(F)c(F)c1)c1cccc(-c2ccc(OCCc3ccc(Cl)cc3)nn2)c1` [Compound 15, 3-(6-(4-chlorophenethoxy)pyridazin-3-yl)-N-(3,4-difluorophenylsulfonyl)benzamide], 27.7 µM.
